Laboratory results reported in patent publication US11591604B2, “Gene expression in Bacteroides” (Massachusetts Institute of Technology, priority 2015, dated 2023).

System: NanoLuc
Assay: NanoLuc luciferase reporter expression from constitutive promoters and RBSs integrated with pNBU2
Assay type: cell-based, B. thetaiotaomicron
Details: RBS combined with promoter PBT1311, NanoLuc reporter, three biological replicates
From the text: FIGS. 1A-1G. Genetic parts to control expression in B. thetaiotaomicron. (FIG. 1A) The ranges of gene expression are shown for the different gene regulation systems provided herein. (FIG. 1B) IntN2 catalyzes stable integration of pNBU2-based expression constructs into one of two attBT2 sites in the B. thetaiotaomicron genome. The two attBT2 sites (attBT2-1 at nucleotide (nt) 6,217,227 and attBT2-2 at nt 6,138,320) are in the 3′ ends of tRNA^Ser genes (BT_t71 and BT_t70, respectively). (FIG. 1C) Constitutive promoters and ribosome binding sites for the construction of gene expression libraries. The putative −33 and −7 regions of the PBT1311 promoter, the Shine-Delgarno sequence, and the start codon are indicated by black boxes. Numbers below the black boxes represent nucleotide locations relative the PBT1311 transcription start site. The 26 nt sequences introduced in the PAM promoters are shown (see also FIGS. 6A-6B). Numbers at the edges of the boxes indicate the PBT1311 nucleotides replaced or the insertion site within the promoter. The location of residues randomized in the rpiL* RBS library are indicated with gray arrows (for library A: nt −14, −13, −12; for library B: nt −21, −18, −15; and for library C: nt −17, −16, −11; nt numbering is relative to the translation start site). (FIG. 1D) Activity was measured for a set of constitutive promoters and their cognate RBSs. Furthermore, a set of constitutive promoters (PBT1311, PAM1, PAM2, PAM3, PAM4) was combined with RBSs of varying strengths. Gene expression was measured using a luciferase reporter (NanoLuc). (FIG. 1E) Three large RBS libraries were constructed and combined with promoter PBT1311 to span 10^3-fold in gene expression. For reference, the parent rpiL* RBS is indicated with a black arrow. For D and E, error bars represent the standard deviation of three independent biological replicates made on separate days. (FIG. 1F) The strength of each RBS was compared to the predicted free energy of folding for the mRNA (ΔGfold,). (FIG. 1G) Strong (SEQ ID NO: 210) and weak (SEQ ID NO: 211) consensus sequences for the rpiL* −21 to −11 RBS region targeted by mutagenesis (residue locations are stated relative to the translation start site) are provided. Frequency logos were generated for the 11 strongest and 11 weakest RBSs by comparing the frequency of each nucleotide at each position in that group with the frequency of that nucleotide in that position in the full library. Position −20 and −19 were not randomized and are thus are not shown in the frequency logos.
All genetic parts in this study were characterized using the integration vector pNBU2 to ensure genetic stability of the constructs (FIG. 1B). The pNBU2 plasmid encodes the intN2 tyrosine integrase, which mediates sequence-specific recombination between the attN site of pNBU2 and one of two attBT sites located in the 3′ ends of the two tRNA^Ser genes, BT_t70 and BT_t71, on the B. thetaiotaomicron chromosome (FIG. 1B). Insertion of the pNBU2 plasmid inactivates the tRNA^Ser gene, and simultaneous insertion into both BT_t70 and BT_t71 is unlikely due to the essentiality of tRNA^Ser. pNBU2-based vectors have been used for single-copy complementation in B. thetaiotaomicron in in vitro studies (Koropatkin N M et al. Nat. Rev. Microbiol. 10:323-35, 2012) and in vivo mouse models (Martens E C et al. Cell Host Microbe 4:447-57, 2008).
B. thetaiotaomicron genetic parts were characterized with NanoLuc luciferase (Hall M P et al. ACS Chem. Biol. 7:1848-1857, 2012), which is a small (19 kDa) modified shrimp luciferase. Efforts to use members of the green fluorescent protein family and a FMN-based fluorescent reporter were not successful. NanoLuc oxidizes the exogenously-added substrate furimazine to produce glow-type bioluminescence (Emax=460 nm) with a signal half-life of 2 hr. […]

**Q.** With “A39: RBS, SEQ ID NO: 116 (DNA TCCCGCATTTTAAAATAAAATAAATTATTGTTTTATTTAAACGAAT; chemistry not fully specified)” as the substance, how does the “Average Luminescence (RLU/CFU)” value read?
**A.** The value was 0.003302 RLU/CFU.

**Q.** “A40: RBS, SEQ ID NO: 118 (DNA TCCCGCATTTTAAAATAAAATAAATTATTTGTTTATTTAAACGAAT; chemistry not fully specified)” was tested. Which “Average Luminescence (RLU/CFU)” value did it give?
**A.** The value was 0.002992 RLU/CFU.

**Q.** “A41: RBS, SEQ ID NO: 123 (DNA TCCCGCATTTTAAAATAAAATAAATTATTATTTTATTTAAACGAAT; chemistry not fully specified)” was tested. Which “Average Luminescence (RLU/CFU)” value did it give?
**A.** The value was 0.002417 RLU/CFU.

**Q.** For “A42: RBS, SEQ ID NO: 130 (DNA TCCCGCATTTTAAAATAAAATAAATTATTGGTTTACTTAAACGAAT; chemistry not fully specified)”, which “Average Luminescence (RLU/CFU)” value is on record?
**A.** The value was 0.001478 RLU/CFU.

**Q.** Which “Average Luminescence (RLU/CFU)” value does the source give for “A43: RBS, SEQ ID NO: 131 (DNA TCCCGCATTTTAAAATAAAATAAATTATTCGTTTAATTAAACGAAT; chemistry not fully specified)” here?
**A.** The value was 0.001461 RLU/CFU.

**Q.** With “A44: RBS, SEQ ID NO: 135 (DNA TCCCGCATTTTAAAATAAAATAAATTATTCGTTTATTTAAACGAAT; chemistry not fully specified)” as the substance, how does the “Average Luminescence (RLU/CFU)” value read?
**A.** Its value is 0.0006478 RLU/CFU.

**Q.** “A45: RBS, SEQ ID NO: 137 (DNA TCCCGCATTTTAAAATAAAATAAATTATTCGTTTACTTAAACGAAT; chemistry not fully specified)” was tested. Which “Average Luminescence (RLU/CFU)” value did it give?
**A.** Its value is 0.0005331 RLU/CFU.

**Q.** How did the “Average Luminescence (RLU/CFU)” value turn out when “B1: RBS, SEQ ID NO: 1 (DNA TCCCGCATTTTAAAATAAAATAAATTATTCGTTTAGTTAAACGAAT; chemistry not fully specified)” was run?
**A.** The value was 0.09025 RLU/CFU.

**Q.** “B2: RBS, SEQ ID NO: 2 (DNA TCCCGCATTTTAAAATAAAATAAATGATATAATTAATTAAACGAAT; chemistry not fully specified)” was tested. Which “Average Luminescence (RLU/CFU)” value did it give?
**A.** The value was 0.06325 RLU/CFU.

**Q.** Which “Average Luminescence (RLU/CFU)” value does the source give for “B3: RBS, SEQ ID NO: 3 (DNA TCCCGCATTTTAAAATAAAATAAATAATATAATTAATTAAACGAAT; chemistry not fully specified)” here?
**A.** The value was 0.06083 RLU/CFU.

**Q.** For “B4: RBS, SEQ ID NO: 4 (DNA TCCCGCATTTTAAAATAAAATAAATAATTTAATTAATTAAACGAAT; chemistry not fully specified)”, which “Average Luminescence (RLU/CFU)” value is on record?
**A.** Its value is 0.05153 RLU/CFU.

**Q.** With “B5: RBS, SEQ ID NO: 5 (DNA TCCCGCATTTTAAAATAAAATAAATTATATAATTAATTAAACGAAT; chemistry not fully specified)” as the substance, how does the “Average Luminescence (RLU/CFU)” value read?
**A.** Its value is 0.04825 RLU/CFU.

**Q.** For “B6: RBS, SEQ ID NO: 6 (DNA TCCCGCATTTTAAAATAAAATAAATAATATACTTAATTAAACGAAT; chemistry not fully specified)”, which “Average Luminescence (RLU/CFU)” value is on record?
**A.** Its value is 0.04723 RLU/CFU.

**Q.** How did the “Average Luminescence (RLU/CFU)” value turn out when “B7: RBS, SEQ ID NO: 8 (DNA TCCCGCATTTTAAAATAAAATAAATAATCTACTTAATTAAACGAAT; chemistry not fully specified)” was run?
**A.** Its value is 0.04704 RLU/CFU.

**Q.** Which “Average Luminescence (RLU/CFU)” value does the source give for “B8: RBS, SEQ ID NO: 9 (DNA TCCCGCATTTTAAAATAAAATAAATTATTTAATTAATTAAACGAAT; chemistry not fully specified)” here?
**A.** Its value is 0.04684 RLU/CFU.

**Q.** “B9: RBS, SEQ ID NO: 10 (DNA TCCCGCATTTTAAAATAAAATAAATTATCTAATTAATTAAACGAAT; chemistry not fully specified)” was tested. Which “Average Luminescence (RLU/CFU)” value did it give?
**A.** Its value is 0.04634 RLU/CFU.

**Q.** With “B10: RBS, SEQ ID NO: 12 (DNA TCCCGCATTTTAAAATAAAATAAATTATATATTTAATTAAACGAAT; chemistry not fully specified)” as the substance, how does the “Average Luminescence (RLU/CFU)” value read?
**A.** Its value is 0.04421 RLU/CFU.

**Q.** Which “Average Luminescence (RLU/CFU)” value does the source give for “B11: RBS, SEQ ID NO: 18 (DNA TCCCGCATTTTAAAATAAAATAAATAATGTAATTAATTAAACGAAT; chemistry not fully specified)” here?
**A.** Its value is 0.03308 RLU/CFU.

**Q.** Which “Average Luminescence (RLU/CFU)” value does the source give for “B12: RBS, SEQ ID NO: 22 (DNA TCCCGCATTTTAAAATAAAATAAATAATATATTTAATTAAACGAAT; chemistry not fully specified)” here?
**A.** Its value is 0.03108 RLU/CFU.

Same assay, conditions: set of 8 RBSs, under control of PBT1311, NanoLuc reporter

**Q.** How did the “Expression Level (RLU/CFU)” value turn out when “B1: RBS, SEQ ID NO: 1 (DNA TCCCGCATTTTAAAATAAAATAAATTATTCGTTTAGTTAAACGAAT; chemistry not fully specified)” was run?
**A.** Its value is 9.02E-02 RLU/CFU.
